The source of these data is the METLIN SMRT retention time set (Domingo-Almenara et al. 2019).

This data set in a line: gradient 5% acetonitrile 3 min, to 50% in 2 min, to 85% in 15 min, held 3 min, 100 µL/min. To be noted: column: Zorbax Extend-C18 2.1 x 50 mm; eluents: water / acetonitrile, 0.1% formic acid. An outline of the steps:
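Retention times come from adduct peaks that were picked computationally and then checked by hand. The standards, pure and pooled in mixtures of ~100 molecules, were run on a Zorbax Extend-C18 column (2.1 × 50 mm, 1.8 μm) at 100 μL/min with water and acetonitrile, each with 0.1% formic acid. Detection was by quadrupole time-of-flight mass spectrometry in positive and negative ionization mode, with a dead volume of 40 μL and a dwell volume of 900 μL.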
Regarding `COCCCNC(=O)Cn1nc(-n2c(C)ccc2C)c2c(C)cc(C)nc21`, the RP-LC retention time is 874 s.
For `COc1ccc(C2Cn3nnc(C(=O)N4CCC(C(=O)NC5CC5)CC4)c3CO2)cc1` (centres undefined), the RP-LC retention time is 699 s.
Consider `COc1cccc(C(=O)Nc2nc(-c3ccc(OC)c([N+](=O)[O-])c3)c(C)s2)c1`, for which the RP-LC retention time was determined as 1070 s.
The figure for `Cc1cccc(N2CCN(c3cc(C(=O)O)c4cc(NC(=O)C(C)(C)C)ccc4n3)CC2)c1C` is 774 s; for `CCCNC(=O)C1CCN(c2cncnc2N2CCCCC2)CC1` it is 620 s.
`CCOc1ccccc1C(=O)N(C)CC1(C)CCOCC1` registered an RP-LC retention time of 794 s.
On to `CCCNc1cc(N2CCC(CCC(=O)NC3CCN(C(=O)OCC)CC3)CC2)ncn1`, for which the RP-LC retention time amounted to 627 s.
`Cc1ccc(-c2noc(CN3N=NC4C(=O)N(c5ccc(C)c(Cl)c5)C(=O)C43)n2)cc1` (centres undefined) registered an RP-LC retention time of 1100 s.
`CCOC(=O)c1ccc(NC(=O)N2CCCC2c2cc(C(C)C)no2)cc1` (centres undefined): the RP-LC retention time is 942 s.
In turn, `COc1ccc(NC(=O)C2CN(S(=O)(=O)C3CC3)CC23CCCCC3)c(OC)c1` (centres undefined) had an RP-LC retention time of 961 s.
`O=S(=O)(NCCC1=CCCCC1)c1cccc(-c2nc(-c3ccccc3)no2)c1`: the RP-LC retention time amounted to 1360 s.
In turn, `Cc1nc2c(c(N(C)CC(=O)N3CCCC3)n1)CCC2` had an RP-LC retention time of 561 s.
In turn, `Cc1ccccc1NC(=O)Cn1c(C)nc2c(sc3nc(-c4ccccc4)ccc32)c1=O` gave an RP-LC retention time of 1060 s.
Next, `O=C(CCc1nc(-c2ccc(N3CCCC3)cc2)no1)N1CCN(c2ccc(Cl)cc2)CC1`: 1240 s; `CCn1cc(CN2CCC(C(=O)NC(C)c3ccccc3)CC2)c2cc(OC)ccc21` (centres undefined): 707 s; `Cc1nc2ccccc2c(=O)n1Cc1noc(-c2cccc(Br)c2)n1`: 948 s.
As for `COc1ccc(C(=O)N2CC(n3cc(COCC4CC4)nn3)C2)cc1F`, the RP-LC retention time was determined as 620 s.
In turn, `Cn1cccc1C(=O)C(=O)NCCc1ccc(Cl)cc1` registered an RP-LC retention time of 939 s.
The figure for `O=C(Cc1csc(Nc2cccc(Cl)c2)n1)N1CCN(C(=O)c2ccco2)CC1` is 718 s; for `O=S(=O)(c1ccccc1Cl)N1CC(F)(F)C[C@H]1CN1CCc2ccccc2C1` it is 760 s; for `CCn1cc(CN2CCC(C(=O)NC3CCCCC3)CC2)c2cc(OC)ccc21` it is 688 s.
Regarding `CC1CCCN(S(=O)(=O)c2ccc(-c3nnc(C4CCCC4)o3)o2)C1` (centres undefined), the RP-LC retention time was found to be 1080 s.
For `CCC(=O)N1CCC(C(=O)Nc2ccc(S(=O)(=O)N3CCCC3)cc2)CC1`, the RP-LC retention time amounted to 697 s.
Molecule `CNS(=O)(=O)c1cccnc1Nc1ccccc1` came in with an RP-LC retention time of 865 s.
Consider `CC1=C(c2cccc(Cl)c2)S(=O)(=O)N=C1N1CCCN(C(=O)C(C)C)CC1`, for which the RP-LC retention time was 786 s.
Consider `Cn1c(NC(=O)c2ccc(Cl)cc2)cc(=O)n(C)c1=O`, for which the RP-LC retention time was determined as 660 s.
`CN(C)CCN(C)CCc1ccc(Cl)c(Cl)c1` yielded an RP-LC retention time of 639 s.
The molecule `CC1CCCN(CCCNC(=O)c2ccc3c(c2)NC(=O)C2CCCN32)C1` (centres undefined) came in with an RP-LC retention time of 579 s.
The figure for `CCCn1c(=O)sc2cc(S(=O)(=O)N3CCC(C(=O)NC(C)CC)CC3)ccc21` (centres undefined) is 853 s.
The molecule `Cc1[nH]c2ccc(-c3nnc(SCC(=O)NC(C)c4nc5ccccc5[nH]4)o3)cc2c1C` (centres undefined) yielded an RP-LC retention time of 667 s.
The figure for `COc1ccccc1-c1nc(COC(=O)C2=CN(Cc3ccccc3)S(=O)(=O)N=C2C)no1` is 1070 s.
Next, `Cc1ccc(C)c(CN2CCC(F)(c3nc(-c4cnccn4)no3)CC2)c1`: 650 s; `CS(=O)(=O)Nc1cccc(NC(=O)C2CCN(CC(=O)Nc3ccc(F)cc3)CC2)c1`: 564 s.
For the molecule `COCCN1C(=O)c2ccccc2C(C(=O)Nc2ccc(OC)cc2OC)C12CCCC2` (centres undefined), the RP-LC retention time came out at 871 s.
Molecule `COc1ccc(Cc2nnc(C3CCN(C(=O)c4ccco4)CC3)s2)cc1` showed an RP-LC retention time of 703 s.
In turn, `CCn1nccc1-c1cccc(-c2noc(-c3ccc(CS(=O)(=O)c4ccccc4)cc3)n2)c1` returned an RP-LC retention time of 1160 s.
In turn, `O=S(=O)(c1cc(-c2nnc(C3CCCC3)o2)co1)N1CCCCC1` registered an RP-LC retention time of 1000 s.
The figure for `Cc1ccsc1C(=O)N1CCN(c2cc(-c3ccc(Cl)cc3)[nH]n2)CC1` is 749 s.
`COc1ccc(CCNC(=O)Cc2csc3nc(-c4ccc(OC)c(OC)c4)cn23)cc1OC` displayed an RP-LC retention time of 661 s.
The molecule `Cc1cc(C(=O)NCC23CCCC=C2NC(=O)CC3)n(C)n1` (centres undefined) yielded an RP-LC retention time of 636 s.
`COc1ccc(OCc2nnc3sc(-c4ccc5ccccc5n4)nn23)cc1` came in with an RP-LC retention time of 1040 s.
For the molecule `CCCNC(=O)c1nc2cc(C)c(C)cc2[nH]c1=O`, the RP-LC retention time came to 671 s.
Take `COc1cccc(N2CCN(C(=O)C3CCN(c4cncnc4N(C)C)CC3)CC2)c1`: the RP-LC retention time amounted to 648 s.
For `CC(C)Sc1ccc(CC(=O)NCc2ccsc2)cc1`, the RP-LC retention time amounted to 908 s.
Molecule `O=C(c1ccc2ncccc2c1)N1CCC(c2nc(C3CC3)n[nH]2)CC1` showed an RP-LC retention time of 491 s.
`Cc1ccc(C)c(N2CCN(c3ccnc(SCC(=O)NC(C)CCc4ccccc4)n3)CC2)c1` (centres undefined): the RP-LC retention time was 1020 s.
Molecule `Cc1c(C(=O)NCCN2CCOCC2)sc2ncn(CC(=O)N3CCCCC3C)c(=O)c12` (centres undefined) yielded an RP-LC retention time of 598 s.
The molecule `O=C(c1cc(-c2cccnc2)n[nH]1)N1CCCC(C(=O)N2CCN(c3ccc(Cl)cc3)CC2)C1` (centres undefined) returned an RP-LC retention time of 685 s.
In turn, `O=S(=O)(c1ccc2c(c1)OCCO2)N1CCCn2nc(-c3cccnc3)cc2C1` displayed an RP-LC retention time of 621 s.
Consider `CCOc1ccccc1NC(=O)N1CCCC(C)(C(=O)NCc2ccccc2C)C1` (centres undefined), for which the RP-LC retention time was 860 s.
`CCC(C)NC(=O)C1CCN(S(=O)(=O)c2c(C)nn(CC(=O)Nc3ccc(C)cc3)c2C)CC1` (centres undefined) yielded an RP-LC retention time of 806 s.
For `CCOc1ccccc1-c1c(C#N)c(N)nc2c1c(=O)n(C)c(=O)n2C`, the RP-LC retention time was 786 s.
`NC(=O)C1CCN(C(=O)Cn2c(=O)n(C3CCCCC3)c(=O)c3cc(Br)ccc32)CC1`: the RP-LC retention time was determined as 771 s.
Turning to `COc1ccc(NC(=O)Cn2cnc3nc4c(cc3c2=O)CCCC4)cc1`, the RP-LC retention time turned out to be 695 s.
`Cc1cccc(NC(=O)C2CC(=O)N(c3ccc4c(c3)CCN4C(=O)C3CC3)C2)c1C` (centres undefined) gave an RP-LC retention time of 763 s.
Consider `CCc1sc(NC(=O)c2cc3c([nH]c2=O)CC(C)(C)CC3=O)nc1-c1ccc(C)c(C)c1`, for which the RP-LC retention time worked out at 1150 s.
Molecule `O=C(Cc1nnc2cc(-c3nc(C4CC4)no3)ccn12)N1CCOCC1` gave an RP-LC retention time of 642 s.
`CCc1ccccc1N(C)C(=O)C1CCCN(c2ncnc3c2nc2n3CCCCC2)C1` (centres undefined) returned an RP-LC retention time of 909 s.
In turn, `NC(=O)c1ccc2c(c1)CCN2C(=O)C1CCCC1` came in with an RP-LC retention time of 698 s.
The molecule `Cc1ccc(CNc2cc(-n3ccnc3)ncn2)cc1` displayed an RP-LC retention time of 648 s.
Consider `CCCN(CCC)[C@@H]1CCc2cccc(O)c2C1`, for which the RP-LC retention time was found to be 691 s.
With `O=C(NCCc1csc(-c2ccc(F)cc2)n1)c1ccco1`, the RP-LC retention time stood at 868 s.
The molecule `Cc1ccc(Cl)cc1N1CCN(c2ccc3cc(S(=O)(=O)N4CCOCC4)ccc3n2)CC1` came in with an RP-LC retention time of 1200 s.
The molecule `CC(=O)Nc1ccc(C(=O)N2CCCCCC2)o1` had an RP-LC retention time of 665 s.
The molecule `CCOC(=O)C1CCN(C(=O)c2nnc(-c3ccc(S(=O)(=O)N4CCOCC4)cc3)o2)CC1` yielded an RP-LC retention time of 826 s.
As to `N#Cc1ccccc1CN1CCCC(N2CCCC2)C1=O` (centres undefined), the RP-LC retention time worked out at 574 s.
With `CCOc1ccc(CN2C[C@@H](CO)[C@H](c3ccncc3)C2)cc1OCC`, the RP-LC retention time is 556 s.
Regarding `CCc1ccc(NC(=O)Cn2c(=O)cc(-c3nc(C(C)C)no3)c3ccccc32)cc1`, the RP-LC retention time was found to be 1100 s.
In the case of `O=C1NC2(CCN(C(=O)NCc3ccccc3)CC2)Nc2c(Cl)cccc21`, the RP-LC retention time was 724 s.
Consider `CC(=O)N1CCCc2cc(S(=O)(=O)CCC(=O)Nc3ccc(Br)cc3F)ccc21`, for which the RP-LC retention time was 824 s.
`COc1ccc(-c2csc(Nc3ccccc3)n2)cc1` showed an RP-LC retention time of 1070 s.
The figure for `Cc1cc(C)cc(Nc2c(-c3ccc(N(C)C)cc3)nc3cnccn23)c1` is 921 s; for `CCCOc1nc2ccccc2nc1N1CCCC(C(=O)Nc2cccc(C(=O)OCC)c2)C1` (centres undefined) it is 1340 s; for `CCOC(=O)Cc1c(C)c2cc(C(=O)c3ccccc3)c(O)cc2oc1=O` it is 768 s.
Next, `Cc1cc(C)c2c(N3CCCCC3)nc(C(=O)NC(C)c3cccnc3)nc2n1` (centres undefined): 568 s; `COc1ccc(NC(=O)C2CCCN(c3nnc4ccccn34)C2)cc1` (centres undefined): 637 s; `CC(C)c1ccc(NC(=O)C2CCCN(c3cc(=O)n(C)c(=O)n3C)C2)cc1` (centres undefined): 829 s.
Regarding `CCc1nc2c(c(=O)n1CC(=O)Nc1ccc(C(C)C)cc1)CN(Cc1ccccc1)CC2`, the RP-LC retention time was determined as 753 s.
`CCOC(=O)c1c(C)c(C(=O)C(C)N(CC)C(=O)c2ccccc2Cl)c(C)n1CC` (centres undefined) yielded an RP-LC retention time of 1050 s.
